Measurements from US6632665B1, “Human gene encoding 3′-5′ exonuclease” (Wake Forest University, priority 1999, dated 2003).

Tests used:
HL-60 cells [1] = assay: intracellular araCTP quantified by HPLC in 6-MP treated cells; type: cell-based; conditions: cells treated with 6-MP up to twelve hours, harvested one hour after addition of araC
Procedure: The increased incorporation of araC into the DNA was not the result of increased accumulation of araC in the 6-MP treated cells. Cells were treated with 6-MP for varying times for up to twelve hours followed by incubation with […]. At time points up to twelve hours, cells were treated with araC and harvested one hour after addition of araC. The nucleotides were then separated using HPLC, and intracellular araCTP was quantified.
(§1) Logarithmically growing cultures of HL-60 cells are incubated with 6-MP for varying times. The cultures are divided into two groups. The first group is treated with 1 μM ^3H-araC for 1 hour to measure araC in DNA. The second group is treated with ^3H-thymidine and 1 μM unlabeled araC for 1 hour to measure total DNA synthesis. Cells are pelleted, washed with PBS, and ^3H-araC or ^3H-thymidine in acid insoluble material is determined by scintillation counting. To measure araCTP in HL-60 cells, 6-MP treated samples are incubated with 1 μM ^3H-araC. Cells are pelleted and washed with PBS. The acid soluble nucleotides are collected and separated by HPLC (Partisil 10 SAX, Whatman). The fraction containing ^3HaraCTP is quantified by scintillation counting.

HL-60 cells [2] = assay: cell killing by growth curves and clonogenic assays of treated cells; type: cell-based; conditions: 6-MP pretreatment plus araC
murine leukemia cells = murine leukemia cells treated for twelve hours with 6-MP; cited from earlier work
HL-60 cells [3] = assay: intracellular accumulation of TIMP by HPLC; type: cell-based; conditions: HL-60 cells pretreated with 50 or 100 μM 6-MP
Procedure: (§2) HL-60 cells were incubated with 6-mercaptopurine (6-MP) to allow intracellular levels of thioinosine monophosphate (TIMP) to accumulate. […] Cytoplasmic 6-MP is converted to an active nucleotide metabolite TIMP by the action of hypoxanthine phosphoribosyltransferase (HPRT). […] Intracellular accumulation of TIMP was determined by HPLC [Zimm, et al., Cancer Res. 45:4156-4161 (1985)]. Upon addition of araC, the amount of araC incorporated into DNA increased and total DNA synthesis decreased in cells pretreated with 6-MP relative to untreated cells. At peak intracellular levels of TIMP, araC incorporation into DNA relative to total DNA synthesis was 20-fold greater in the 6-MP treated cells.

HL-60 cells [4] = assay: araC incorporation into DNA and total DNA synthesis in 6-MP pretreated HL-60 cells; type: cell-based
Procedure: as §2, §1

[5] = test system: exonuclease activity specifically associated with DNA polymerase δ; conditions: Lee, et al. Biochemistry 19:215-219 (1980); cited from earlier work
30 kDa exonuclease = molecular target: T1, 30 kDa exonuclease (Homo sapiens, UniProt Q9NSU2); assay: in vitro enzyme inhibition of the 30 kDa 3'-5' exonuclease; type: biochemical; conditions: 30 kDa exonuclease purified from myeloblastic leukemia cells
T1 construct: endogenous in cells; host or cells: human myeloblastic leukemia cells (myeloblasts)
T1 sequence (Q9NSU2 1-314): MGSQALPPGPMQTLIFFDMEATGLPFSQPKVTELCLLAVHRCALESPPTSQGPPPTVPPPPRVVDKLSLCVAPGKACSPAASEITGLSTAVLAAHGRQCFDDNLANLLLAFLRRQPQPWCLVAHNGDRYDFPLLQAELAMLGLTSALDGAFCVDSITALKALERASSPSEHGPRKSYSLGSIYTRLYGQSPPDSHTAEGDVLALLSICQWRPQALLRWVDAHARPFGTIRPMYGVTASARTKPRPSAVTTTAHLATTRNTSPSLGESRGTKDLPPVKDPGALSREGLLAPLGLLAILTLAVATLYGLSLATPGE
Procedure: In order to assess the effect of intracellular TIMP that contributed to increased araC incorporation, exonuclease activity was partially purified from myeloblastic leukemia cells and in vitro enzyme inhibition studies ware carried out with TIMP. The majority of the cellular exonuclease activity was found in a band migrating on SDS-PAGE with a predicted molecular weight of 30 kDa.
Inhibition studies were also carried out with the purified 30 kD exonuclease and either TIMP or dGMP.
Useful methods in the practice of this example include the following: DNA pol δ may be purified from human myeloblasts using the methods of Syvaoja et al. (Proc. Natl. Acad. Sci., USA 87:6664-6668, 1990) through step 5. The specific activity of the DNA pol δ preparation is preferably about 3,500 units/mg. A unit of DNA pol δ catalyzes the incorporation of 1 nmol of total nucleotide per hour at 37° C. using 100 μM poly(dAdT) as template and reaction conditions as described by Lewis et al. (Biochemistry 33:14620-14624, 1994). […]
To measure the 3′-5′ exonuclease activity, a 23 mer is labeled with ^32P at the 5′ position and used in reactions as ssDNA. […] Samples are dried, resuspended in 5 μl 95% formamide, and analyzed by electrophoresis through 15% polyacrylamide sequencing gels. Radiolabeled bands are visualized and quantified by phosphorimagery (Molecular Dynamics). […]

[6] = test system: 30 kDa enzyme with 3'-5' exonuclease activity; assay: removal of 3' terminal araC from template primer by the 30 kDa exonuclease; type: biochemical, human, bovine; conditions: araC at the 3' terminus of the template primer
Excerpt: For protein purification from bovine thymus, an additional step using phenyl SUPEROSE was employed. In order to detect exonuclease activity in the cell extract, a biochemical assay was developed using DNA polymerase a and an oligonucleotide template primer with an araC analog at the 3′ terminus. In this assay, incorporation of radiolabeled nucleotides into the araC-template primer by the polymerase first requires that the araC analog be removed by a 3′-5′ exonuclease.

[7] = test system: 32P-labeled 23 nucleotide oligomer; assay: exonuclease activity of protein extracts of transformed BL21/DE3 cells; type: biochemical; conditions: protein extract of BL21/DE3 cells, IPTG induced
Procedure: To measure the 3′-5′ exonuclease activity, a 23 mer is labeled with ^32P at the 5′ position and used in reactions as ssDNA. Reaction mixtures (10 μl) are prepared containing 20 mM Tris-HCl, pH 7.5, 10 mM MgCl2, 2 mM DTT, 100 μg/mL BSA, 100 nM 23 mer, and 1 μl of the appropriate enzyme dilution. Incubation is 20 minutes at 37° C., and reactions are stopped by addition of 30 μl 95% ethanol. Samples are dried, resuspended in 5 μl 95% formamide, and analyzed by electrophoresis through 15% polyacrylamide sequencing gels. Radiolabeled bands are visualized and quantified by phosphorimagery (Molecular Dynamics). One unit of exonuclease is the amount of enzyme needed to degrade 1 pmol of 3′ termini in 1 min at 37° C.
The pTREX1h/T7 plasmid was electroporated into BL21/DE3 cells, which were grown at 23° C. to a density of OD595 0.3. Isopropylthiogalactopyranoside (IPTG) was added to induce overexpression and incubation of the cells was continued overnight. Protein extracts were prepared from the cells and enzyme activity assayed using a ^32P-labeled 23 nucleotide oligomer.
Template DNA was the mouse EST 480859. PCR was carried out as described for TREX1h and the resulting amplification product was subcloned as for TREX1h. The resulting expression plasmid was designated pTREX2m/T7 and expression of the encoded gene was carried out as described for TREX1h. […]

[8] = HL-60 cells pretreated with 6-MP relative to untreated cells, upon addition of araC

## Sc1ncnc2nc[nH]c12 [6-MP, 6-mercaptopurine]
HL-60 cells [1]
  variation of intracellular araCTP levels during the time course: less than two-fold
HL-60 cells [2]
  cell killing: increase in cell killing
Murine leukemia cells
  intracellular level of TIMP: approximately 180 μM
HL-60 cells [3]
  time of peak intracellular TIMP concentration: approximately twelve
HL-60 cells [4]; [8]
  amount of araC incorporated into DNA: increased
  total DNA synthesis: decreased
HL-60 cells [4]; HL-60 cells pretreated with 6-MP, at peak intracellular levels of TIMP, then araC
  araC incorporation into DNA relative to total DNA synthesis, 6-MP treated vs untreated cells: 20 fold

## O=P(O)(O)OC[C@H]1O[C@@H](n2cnc3c(S)ncnc32)[C@H](O)[C@@H]1O [TIMP, thioinosine monophosphate]
[5]
  inhibition of DNA polymerase δ associated exonuclease activity: inhibit exonuclease activity
30 kDa exonuclease
  Ki: 17 µM

## Nc1ccn([C@@H]2O[C@H](CO)[C@@H](O)[C@@H]2O)c(=O)n1 [araC, 1-β-D-arabinofuranosylcytosine]
[6]
  apparent rate of araC removal by the exonuclease: approximately the same rate as the rate of deoxynucleotide monophosphate removal

## Nc1nc2c(ncn2[C@H]2C[C@H](O)[C@@H](COP(=O)(O)O)O2)c(=O)[nH]1 [dGMP]
30 kDa exonuclease
  Ki: 56 µM

B1: TREX2m: murine 3'-5' exonuclease polypeptide, SEQ ID NO:32, expressed from pTREX2m/T7 (protein, listed as Mus musculus)
chain: MSEPPRAETFVFLDLEATGLPNMDPEIAEISLFAVHRSSLENPERDDSGSLVLPRVLDKLTLCMCPERPFTAKASEITGLSSESLMHCGKAGFNGAVVRTLQGFLSRQEGPICLVAHNGFDYDFPLLCTELQRLGAHLPQDTVCLDTLPALRGLDRAHSHGTRAQGRKSYSLASLFHRYFQAEPSAAHSAEGDVHTLLLIFLHRAPELLAWADEQARSWAHIEPMYVPPDGPSLEA
[7]
  exonuclease activity versus control cells with parental vector only: 30 fold

B2: TREX1h: human 3'-5' exonuclease polypeptide, SEQ ID NO:2, expressed from pTREX1h/T7 (protein)
chain: MGSQALPPGPMQTLIFFDMEATGLPFSQPKVTELCLLAVHRCALESPPTSQGPPPTVPPPPRVVDKLSLCVAPGKACSPAASEITGLSTAVLAAHGRQCFDDNLANLLLAFLRRQPQPWCLVAHNGDRYDFPLLQAELAMLGLTSALDGAFCVDSITALKALERASSPSEHGPRKSYSLGSIYTRLYGQSPPDSHTAEGDVLALLSICQWRPQALLRWVDAHARPFGTIRPMYGVTASARTKPRPSAVTTTAHLATTRNTSPSLGESRGTKDLPPVKDPGALSREGLLAPLGLLAILTLAVATLYGLSLATPGE
modifications: HOMO SAPIENS
[7]
  exonuclease activity versus control cells with parental vector only: 30 fold
